PubChem BioAssay AID1919005 (Molecular Pharmacology Branch, DTP, NCI, 2023)
Several values for one entry are separate records, joined by “and”; a condition that tells them apart may be missing. Identical values can stand only once.

Test system: 855422-203-R-J1-PDC complex spheroid growth
Experiment: Anticancer human tumor 855422-203-R-J1-PDC patient-derived bladder carcinoma cell line growth inhibition [AhR]
Details: for viability, T/C: stronger effect = lower value; active = viability on the fitted dose curve at most 10% of control; inactive = the rest
Method in brief: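 Agents were dosed in half-log steps down from roughly clinical Cmax, or from 10 microM where Cmax was unknown, alone and with AhR antagonists. Read-out: percent test/control growth of tumor spheroids containing HUVEC and MSC stromal cells.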

[1] = curve of first compound, second compound 0.1 µM
[2] = curve of first compound, second compound 0.316 µM
[3] = curve of first compound, second compound 1 µM
[4] = curve of first compound, second compound 3.16 µM
[5] = curve of first compound, second compound 10 µM
[6] = second compound 0.1 µM, first compound 0.00316 µM
[7] = second compound 0.1 µM, first compound 0.01 µM
[8] = second compound 0.1 µM, first compound 0.0316 µM
[9] = second compound 0.1 µM, first compound 0.1 µM
[10] = second compound 0.316 µM, first compound 0.00316 µM
[11] = second compound 0.316 µM, first compound 0.01 µM
[12] = second compound 0.316 µM, first compound 0.0316 µM
[13] = second compound 0.316 µM, first compound 0.1 µM
[14] = second compound 1 µM, first compound 0.00316 µM
[15] = second compound 1 µM, first compound 0.01 µM
[16] = second compound 1 µM, first compound 0.0316 µM
[17] = second compound 1 µM, first compound 0.1 µM
[18] = second compound 3.16 µM, first compound 0.00316 µM
[19] = second compound 3.16 µM, first compound 0.01 µM
[20] = second compound 3.16 µM, first compound 0.0316 µM
[21] = second compound 3.16 µM, first compound 0.1 µM
[22] = second compound 10 µM, first compound 0.00316 µM
[23] = second compound 10 µM, first compound 0.01 µM
[24] = second compound 10 µM, first compound 0.0316 µM
[25] = second compound 10 µM, first compound 0.1 µM
[26] = second compound 0.1 µM, first compound 0.316 µM
[27] = second compound 0.1 µM, first compound 1 µM
[28] = second compound 0.316 µM, first compound 0.316 µM
[29] = second compound 0.316 µM, first compound 1 µM
[30] = second compound 1 µM, first compound 0.316 µM
[31] = second compound 1 µM, first compound 1 µM
[32] = second compound 3.16 µM, first compound 0.316 µM
[33] = second compound 3.16 µM, first compound 1 µM
[34] = second compound 10 µM, first compound 0.316 µM
[35] = second compound 10 µM, first compound 1 µM
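Also: spheroids exposed to agents for seven days before readout.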
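For viability, T/C in this document: percent of DMSO vehicle control luminescence viability.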

CCN(c1cc(-c2ccc(CN3CCOCC3)cc2)cc(C(=O)NCc2c(C)cc(C)[nH]c2=O)c1C)C1CCOCC1 + Cc1ccccc1N=Nc1ccc(NC(=O)c2ccnn2C)c(C)c1
inactive: viability, T/C (second compound 0.1 µM, first compound 0.00949 µM) 105% | viability, T/C (second compound 0.1 µM, first compound 0.03 µM) 93.4% | viability, T/C (second compound 0.1 µM, first compound 0.0949 µM) 93.2% | viability, T/C (second compound 0.1 µM, first compound 0.3 µM) 91.2% | viability, T/C (second compound 0.1 µM, first compound 0.949 µM) 91.1% | viability, T/C (second compound 0.1 µM, first compound 3 µM) 87.5% | viability, T/C (second compound 0.316 µM, first compound 0.00949 µM) 93.7% | viability, T/C (second compound 0.316 µM, first compound 0.03 µM) 93.2% | viability, T/C (second compound 0.316 µM, first compound 0.0949 µM) 92.6% | viability, T/C (second compound 0.316 µM, first compound 0.3 µM) 97.3% | viability, T/C (second compound 0.316 µM, first compound 0.949 µM) 87% | viability, T/C (second compound 0.316 µM, first compound 3 µM) 85.3% | viability, T/C (second compound 1 µM, first compound 0.00949 µM) 105% | viability, T/C (second compound 1 µM, first compound 0.03 µM) 98.8% | viability, T/C (second compound 1 µM, first compound 0.0949 µM) 95.6% | viability, T/C (second compound 1 µM, first compound 0.3 µM) 96.3% | viability, T/C (second compound 1 µM, first compound 0.949 µM) 92.8% | viability, T/C (second compound 1 µM, first compound 3 µM) 85.3% | viability, T/C (second compound 3.16 µM, first compound 0.00949 µM) 91.3% | viability, T/C (second compound 3.16 µM, first compound 0.03 µM) 90.2% | viability, T/C (second compound 3.16 µM, first compound 0.0949 µM) 84.3% | viability, T/C (second compound 3.16 µM, first compound 0.3 µM) 87.1% | viability, T/C (second compound 3.16 µM, first compound 0.949 µM) 83.6% | viability, T/C (second compound 3.16 µM, first compound 3 µM) 82.3% | viability, T/C (second compound 10 µM, first compound 0.00949 µM) 84.2% | viability, T/C (second compound 10 µM, first compound 0.03 µM) 76.8% | viability, T/C (second compound 10 µM, first compound 0.0949 µM) 79.8% | viability, T/C (second compound 10 µM, first compound 0.3 µM) 77.8% | viability, T/C (second compound 10 µM, first compound 0.949 µM) 71.3% | viability, T/C (second compound 10 µM, first compound 3 µM) 72.4%
> 3000 nM: IC50 [1] | IC50 [2] | IC50 [3] | IC50 [4] | IC50 [5]

COc1cccc2c1C(=O)c1c(O)c3c(c(O)c1C2=O)CC(O)(C(=O)CO)CC3OC1CC(N)C(O)C(C)O1 (stereo not drawn)
inactive: viability, T/C (compound 0.0316 µM) 19% and 41.1% and 29.2% | viability, T/C (compound 0.1 µM) 13.1% and 28.8% and 16.9%
active: viability, T/C (compound 0.316 µM) 3.14% and 7.44% and 4.25% | viability, T/C (compound 1 µM) 0.97% and 2.58% and 1.55% | viability, T/C (compound 3.16 µM) 1.22% and 1.89% and 0.79% | viability, T/C (compound 10 µM) 1.82% and 4.62% and 3.32%
< 31.6 nM: IC50 (curve of compound)

Nc1ccn(C2OC(CO)C(O)C2(F)F)c(=O)n1 (stereo not drawn)
inactive: viability, T/C (compound 0.0316 µM) 73.2% and 108% and 116% | viability, T/C (compound 0.1 µM) 24.6% and 89.1% and 98.4% | viability, T/C (compound 0.316 µM) 14.1% and 28.8% and 44% | viability, T/C (compound 1 µM) 15.1% and 17.2% and 34.1% | viability, T/C (compound 3.16 µM) 11.1% and 14.4% and 27.2% | viability, T/C (compound 10 µM) 7.1% and 9.36% and 17.2%
55 nM and 212 nM and 290 nM: IC50 (curve of compound)

CCN(c1cc(-c2ccc(CN3CCOCC3)cc2)cc(C(=O)NCc2c(C)cc(C)[nH]c2=O)c1C)C1CCOCC1
inactive: viability, T/C (compound 0.00949 µM) 105% (2×) and 109% | viability, T/C (compound 0.03 µM) 100% and 102% and 108% | viability, T/C (compound 0.0949 µM) 100% and 105% and 99.7% | viability, T/C (compound 0.3 µM) 94.2% and 98.2% and 97.3% | viability, T/C (compound 0.949 µM) 96.8% and 91.9% and 88.2% | viability, T/C (compound 3 µM) 78.1% and 92.2% and 80.9%
> 3000 nM: IC50 (curve of compound)

CC[C@@]1(O)C(=O)OCc2c1cc1n(c2=O)Cc2cc3c(CN(C)C)c(O)ccc3nc2-1 + Cc1cncc(-c2nc(NCCc3c[nH]c4ccccc34)c3ncn(C(C)C)c3n2)c1
37.8 nM: IC50 [1]
33.7 nM: IC50 [2]
< 0.316 nM: IC50 [5]
18.1 nM: IC50 [4]
25.7 nM: IC50 [3]
active: viability, T/C (second compound 10 µM, first compound 0.001 µM) 8.89% | viability, T/C [22] 4.65% | viability, T/C [23] 6.18% | viability, T/C [24] 3.7% | viability, T/C [25] 1.73%
inactive: viability, T/C (second compound 0.1 µM, first compound 0.000316 µM) 95.4% | viability, T/C (second compound 0.1 µM, first compound 0.001 µM) 85.9% | viability, T/C [6] 103% | viability, T/C [7] 91.5% | viability, T/C [8] 56.8% | viability, T/C [9] 13.1% | viability, T/C (second compound 0.316 µM, first compound 0.000316 µM) 89.6% | viability, T/C (second compound 0.316 µM, first compound 0.001 µM) 87.1% | viability, T/C [10] 93.6% | viability, T/C [11] 89.6% | viability, T/C [12] 52.2% | viability, T/C [13] 11.6% | viability, T/C (second compound 1 µM, first compound 0.000316 µM) 91.4% | viability, T/C (second compound 1 µM, first compound 0.001 µM) 90.6% | viability, T/C [14] 80.8% | viability, T/C [15] 78.1% | viability, T/C [16] 43.6% | viability, T/C [17] 12% | viability, T/C (second compound 3.16 µM, first compound 0.000316 µM) 77.3% | viability, T/C (second compound 3.16 µM, first compound 0.001 µM) 83.7% | viability, T/C [18] 74.3% | viability, T/C [19] 68.5% | viability, T/C [20] 33% | viability, T/C [21] 11.7% | viability, T/C (second compound 10 µM, first compound 0.000316 µM) 13.4%

CC1COCCN1c1cc(-c2ccnn2C)c2ccnc(-c3ccn[nH]3)c2n1 (stereo not drawn) + CC(CO)NC(=O)c1cc(-c2ccc(Cl)cc2)nn(-c2cnn(C)c2)c1=O
inactive: viability, T/C [6] 94.2% | viability, T/C [7] 85% | viability, T/C [8] 93.2% | viability, T/C [9] 94.2% | viability, T/C [26] 61.4% | viability, T/C [27] 22.8% | viability, T/C [10] 94.5% | viability, T/C [11] 87.4% | viability, T/C [12] 78.5% | viability, T/C [13] 95.3% | viability, T/C [28] 52.5% | viability, T/C [29] 21.1% | viability, T/C [14] 97.3% | viability, T/C [15] 89.4% | viability, T/C [16] 88% | viability, T/C [17] 84.9% | viability, T/C [30] 47.9% | viability, T/C [31] 17.6% | viability, T/C [18] 85.7% | viability, T/C [19] 91.8% | viability, T/C [20] 90% | viability, T/C [21] 76.5% | viability, T/C [32] 41.2% | viability, T/C [33] 17.7% | viability, T/C [22] 85.5% | viability, T/C [23] 94.7% | viability, T/C [24] 78.5% | viability, T/C [25] 68.9% | viability, T/C [34] 32.2% | viability, T/C [35] 19.8%
237 nM: IC50 [4]
298 nM: IC50 [3]
444 nM: IC50 [1]
347 nM: IC50 [2]
178 nM: IC50 [5]

Nc1ncn(C2CC(O)C(CO)O2)c(=O)n1 (stereo not drawn) + Cc1ccccc1N=Nc1ccc(NC(=O)c2ccnn2C)c(C)c1
> 1000 nM: IC50 [1] | IC50 [2] | IC50 [3] | IC50 [4] | IC50 [5]
inactive: viability, T/C [6] 94.4% | viability, T/C [7] 98.1% | viability, T/C [8] 93.4% | viability, T/C [9] 98.2% | viability, T/C [26] 93.5% | viability, T/C [27] 86.4% | viability, T/C [10] 102% | viability, T/C [11] 104% | viability, T/C [12] 103% | viability, T/C [13] 94.4% | viability, T/C [28] 93% | viability, T/C [29] 82.8% | viability, T/C [14] 106% | viability, T/C [15] 98.5% | viability, T/C [16] 94% | viability, T/C [17] 93% | viability, T/C [30] 87.2% | viability, T/C [31] 89% | viability, T/C [18] 97.4% | viability, T/C [19] 96.3% | viability, T/C [20] 94.9% | viability, T/C [21] 92.9% | viability, T/C [32] 85.7% | viability, T/C [33] 83.5% | viability, T/C [22] 84.7% | viability, T/C [23] 82.1% | viability, T/C [24] 84.3% | viability, T/C [25] 84.3% | viability, T/C [34] 78% | viability, T/C [35] 76%

COc1cc(C2c3cc4c(cc3C(OC3OC5COC(C)OC5C(O)C3O)C3COC(=O)C23)OCO4)cc(OC)c1O (stereo not drawn)
4.28% and 5.57% and 7.14%: viability, T/C (compound 10 µM)
9.05% and 11.6% and 17.3%: viability, T/C (compound 3.16 µM)
417 nM and 584 nM and 553 nM: IC50 (curve of compound)
inactive: viability, T/C (compound 0.0316 µM) 96.6% and 94.9% and 94.2% | viability, T/C (compound 0.1 µM) 98.4% and 97.4% and 106% | viability, T/C (compound 0.316 µM) 61% and 81.5% and 67.7% | viability, T/C (compound 1 µM) 14.2% and 22% and 29.3%
